Experimental data as given in patent US20220168392A1 (priority 2019, published 2022).
Square brackets hold non-standard residues; d marks the D form. * marks the point of attachment. 2Nal = N[C@@H](Cc1ccc2ccccc2c1)C(=O)O; Propionyl = CCC(=O)*; Sar = CNCC(=O)O

Assays:
Rat = assay: Maximum platelet elevation relative to baseline in normal healthy rats, single escalating doses; format: in vivo; parameters: key to pharmacodynamics (PD) effect class of the dose (beneficial effects on survival): **: large pharmacodynamics (PD) effect; *: modest effect; conditions: for Rat Max Platelet Ratio: TOX6984
Source text: The ratio of the maximum platelet counts to the baseline platelet counts following single escalating doses of RWJ-800088 to mice, rats, dogs, rhesus monkeys and human healthy volunteers is shown in Table 5. The dose required to achieve a 2-3.5-fold elevation in humans is ˜100-fold lower compared to mice, ˜1,000-fold lower compared to rats and >10,000-fold lower compared to canines and NHPs. […] The species differences in potency has been described for other TPO mimetics in the literature and is attributed to differences in receptor affinity (Erickson-Miller C L, et al. Discovery and characterization of a selective, nonpeptidyl thrombopoietin receptor agonist. Exp. Hematol. 2005; 33:85-93). […] It is discovered that the dose of RWJ-800088 that produces a survival benefit and protects against vascular and organ injury is the dose that produces a 2-4 fold elevation of platelets (Table 6).

mice surviving TBI = assay: Long-term blood cells, bone marrow and kidney staining in TBI survivors (Example 5); format: in vivo, mouse
Protocol: Methods: During the above Experiment 4, four studies were performed as follows:
Study A: A subset of the animals were sacrificed at 1, 6, and 12 months. Blood was collected and blood cells counted, and femurs were collected, bone marrow isolated and cultured to analyze for colony forming units;
Study B: A subset of the animals were sacrificed at 1 and 6 months. Sterna were collected from these animals, fixed, sectioned, stained with H&E (Hematoxylin and eosin), and megakaryocytes counted;
Study C: A subset of the animals were sacrificed at 1 and 6 months. Kidneys were collected from these animals, fixed, sectioned, stained with β-Catenin or E-cadherin: and
Study D: A subset of the animals were sacrificed at 1 and 6 months. Kidneys were collected from these animals, fixed, sectioned, stained with β-galactosidase, a marker of senescence.

[1] = system: CD2F1 mice exposed to TBI (7 Gy); assay: Hematological recovery (peripheral blood counts) after non-lethal 7 Gy TBI; format: in vivo, mouse
Protocol: Hematological recovery with RWJ-800088: To study the effects of prophylactic administration of RWJ-800088 on the recovery from hematopoietic injury following TBI, CD2F1 mice (n=10 per group) were treated with either a single dose of RWJ-800088 (0.3 mg/kg) or its vehicle (saline) 24 hours pre-TBI at a non-lethal dose of 7.0 Gy. This dose allows the animals to recover completely from the radiation-induced hematopoietic injury. In addition, a group of sham irradiated mice were given either the drug or saline. Blood collection was performed using a 23 G needle from the submandibular vein after anesthetizing the mice with isoflurane (Hospira Inc., Lake Forest, Ill.) at 2 hours and on days 1, 3, 7, 10, 14, 21, and 30 post-TBI. All mice were allowed to recover fully from anesthesia and monitored closely for any signs of a post-anesthesia reaction or bleeding at the collection site before returned to group housed cages. Approximately 20 μL of blood was collected in EDTA tubes and was continually rotated until CBC/differential analysis was completed using a HESKA Element HT™ 5 Analyzer system (HESKA Corporation, Loveland, Colo.). This CBC/differential analysis included white blood cells (WBC) counts, absolute neutrophil counts (Liem-Moolenaar, Clin Pharmacol Ther. 2008 October; 84(4):481-7), monocytes (MON), lymphocytes (LYM), red blood cells (RBC), hematocrits (HCT), and platelets (PLT) counts.

[2] = system: C3H/HeN male mice exposed to TBI; assay: 30-day survival after TBI in C3H/HeN mice; format: in vivo, mouse; conditions: C3H/HeN M, 8.75 Gy, 3 mg/kg single dose, Pre −24 hr; for Survival treatment: 3 mg/kg
Source text: Total Body Irradiation (TBI). Mice were irradiated bilaterally in the Cobalt-60 gamma-irradiation facility at the AFRRI. These animals were placed in well-ventilated plexiglass chambers made specifically for irradiating mice. An alanine/Electron Spin Resonance (ESR) dosimetry system (American Society for Testing and Material Standard E 1607) was used to measure the dose rates in the cores of acrylic phantoms (3 inches long and 1 inch in diameter) located in all empty slots of the exposure rack in the plexiglass chamber. ESR signals were measured with a calibration curve based on standard calibration dosimeters provided by the National Institute of Standard and Technology (NIST, Gaithersburg, Md.). The calibration curve was verified by inter-comparison with the National Physical Laboratory (NPL) in the United Kingdom. The corrections applied to the measured dose rates in phantoms were for decay of the Co-60 source and for a small difference in mass-energy absorption coefficients for water and soft tissue at the Co-60 energy level. Kaplan-Meier survival curves were plotted using GraphPad software; and trend in survival is compared between vehicle and drug-treated group.
The survival efficacy of RWJ-800088 was tested in C57BL/6 (another strain of mice with different radiation sensitivity compared to CD2F1) in males and females. […] All animals in saline treated groups (males and females) died whereas there was no mortality in RWJ-800088 treated groups 30 days post-TBI. […] All animals in saline treated groups died whereas there was 92% survival observed in the RWJ-800088 (24 h pre-TBI) treated group 30 days post-TBI.

Mice, ear vein = assay: Ear vein model in mice (Table 6); format: in vivo, mouse; conditions: 0.3 mg/kg, whole wrapped cell: Reduced white cell adhesion to endothelium and vascular permeability
[3] = system: dogs after whole body radiation at an LD50 exposure; assay: Dog pilot whole body irradiation study; format: in vivo; conditions: single 10 mg/kg dose 24 hours after whole body radiation at LD50
Protocol: A pilot radio-mitigation study was conducted in dogs with RWJ-800088.

[4] = 1 and 6 months post TBI (FIG. 25)
[5] = day 7 post-TBI 7 Gy, 0.3 mg/kg 24 h pre-TBI
[6] = day 10 post-TBI 7 Gy, 0.3 mg/kg 24 h pre-TBI
[7] = day 14 post-TBI 7 Gy, 0.3 mg/kg 24 h pre-TBI

**Q.** With “methoxypolyethyleneglycol20000-propionyl-L-Isoleucyl-L-Glutamyl-Glycyl-L-Prolyl-L-Threonyl-L-Leucyl-L-Arginyl-L-Glutaminyl-L-2-Naphthylalanyl-L-Leucyl-L-Alanyl-L-Alanyl-L-Arginyl-Sarcosyl-Ne-(methoxypolyethyleneglycol20000-propionyl-L-Isoleucyl-L-Glutamyl-Glycyl-L-Prolyl-L-Threonyl-L-Leucyl-L-Arginyl-L-Glutaminyl-L-2-Naphthylalanyl-L-Leucyl-L-Alanyl-L-Alanyl-L-Arginyl-Sarcosyl-)-Lysinamide ({mPEG 20 kDa-Propionyl}-IEGPTLRQ[2Nal]LAAR[Sar]K-NH2; also: dimer: second identical mPEG-propionyl chain on Lys Nε of C-terminal lysinamide) [RWJ-800088]” as the substance, how does the “Average of the Maximum Platelet Elevation/Baseline Platelet Counts” value (Rat; Rat, dose 3000 μg/kg) read?
**A.** The value was 3.1.

**Q.** What about the “pharmacodynamics (PD) effect class of the dose (beneficial effects on survival)” value (Rat; Rat, dose 3000 μg/kg) of the same substance?
**A.** The value was “**”.

**Q.** And the “Dose for 2.0-4x Platelet Elevation in Healthy Subjects” value (Rat; Rats)?
**A.** The value was ≥3 mg/kg.

**Q.** What about the “Rat Max Platelet Ratio” value (Rat; dose 100 μg/kg) of the same substance?
**A.** The value was 1.0 ± 0.2.

**Q.** And the “Rat Max Platelet Ratio” value (Rat; dose 300 μg/kg)?
**A.** Its value is 1.7 ± 0.3.

**Q.** What about the “Rat Max Platelet Ratio” value (Rat; dose 3000 μg/kg) of the same substance?
**A.** Its value is 3.2 ± 0.6.

**Q.** What about the “E-cadherin expression in kidney vs vehicle” value (mice surviving TBI; [4]) of the same substance?
**A.** Its value is “higher”.

**Q.** What about the “β-Catenin expression in kidney” value (mice surviving TBI; [4]) of the same substance?
**A.** Its value is “decreases β-Catenin expression”.

**Q.** What about the “β-galactosidase staining in kidney (marker of senescence)” value (mice surviving TBI; 1 and 6 months post TBI (FIG. 26, 27)) of the same substance?
**A.** The value was “protects from cellular senescence”.

**Q.** And the “megakaryocytes in sterna vs vehicle (saline)” value (mice surviving TBI; 1 and 6 months post irradiation)?
**A.** Its value is “significantly higher numbers of megakaryocytes”.

**Q.** And the “blood cell types (white blood cells, lymphocytes, neutrophils, platelets, red blood cells) vs vehicle” value (mice surviving TBI; 6 months and 12 months post TBI)?
**A.** The value was “increased in number”.

**Q.** What about the “colony forming units in isolated bone marrow vs vehicle” value (mice surviving TBI; 6 months post TBI (FIG. 23)) of the same substance?
**A.** Its value is “more colony forming units”.

**Q.** What about the “recovery from cytopenia of all blood cell counts vs vehicle control” value ([1]; 7 Gy, 0.3 mg/kg 24 h pre-TBI) of the same substance?
**A.** Its value is “significant”.

**Q.** And the “Neutrophil (NEU) counts” value [1, 5]?
**A.** The value was 0.31±0.026 cells/μL.

**Q.** What about the “white blood cell (WBC) counts” value [1, 5] of the same substance?
**A.** Its value is 0.5±0.037 cells/μL.

**Q.** And the “lymphocyte (LYM) vs vehicle-treated group” value ([1]; day 10 post-TBI 7 Gy)?
**A.** Its value is “significant (p<0.05) increases”.

**Q.** And the “platelet (PLT) count” value [1, 6]?
**A.** The value was 1565×10^3±148×10^3 cells/μL.

**Q.** And the “white blood cell (WBC) counts” value [1, 6]?
**A.** Its value is 1.39±0.1756 cells/μL.

**Q.** What about the “RBC counts of irradiated vehicle-treated group compared with irradiated RWJ-800088 treated group” value ([1]; day 14 post-TBI 7 Gy) of the same substance?
**A.** The value was “same effect was also observed”.

**Q.** And the “Neutrophil (NEU) counts” value [1, 7]?
**A.** Its value is 1.54±0.21 cells/μL.

**Q.** And the “white blood cell (WBC) counts” value [1, 7]?
**A.** The value was 2.43±0.32 cells/μL.

**Q.** And the “platelet (PLT) count” value ([1]; day 14 post-TBI 7 Gy, 0.3 mg/kg 24 h pre-TBI, irradiated RWJ-800088 treated group)?
**A.** The value was 1070×10^3±156×10^3 cells/μL.

**Q.** And the “% HCT of irradiated vehicle-treated group compared with irradiated RWJ-800088 treated group” value ([1]; day 14 post-TBI 7 Gy, p<0.001)?
**A.** Its value is “significantly lower”.

**Q.** What about the “monocyte (MON) counts vs irradiated vehicle-treated group” value ([1]; days 7, 10 and 14 post-TBI 7 Gy, p<0.001) of the same substance?
**A.** The value was “markedly higher”.

**Q.** And the “PLT in non-irradiated groups vs saline” value ([1]; non-irradiated, days 7 and 10 post-TBI (days 8 and 11 after administration), 0.3 mg/kg)?
**A.** The value was “significant (p<0.05) increase in PLT”.

**Q.** And the “Survival Differential (Treatment-Vehicle)” value [2]?
**A.** The value was 92%.

**Q.** What about the Survival treatment [2] of the same substance?
**A.** The Survival treatment was 92%.

**Q.** What about the Survival treatment ([2]; listed as TPOm) of the same substance?
**A.** Its Survival treatment is 92%.

**Q.** And the Effects (Mice, ear vein)?
**A.** Its Effects is “Reduced white cell”.

**Q.** What about the Blood transfusions [3] of the same substance?
**A.** The Blood transfusions was 1.25/ /animal.

**Q.** And the “Days of febrile neutropenia” value [3]?
**A.** Its value is 1.08.

**Q.** And the Diarrhea [3]?
**A.** The Diarrhea was 2/12.

**Q.** And the “Mean survival time” value [3]?
**A.** The value was 36 days.

**Q.** And the “Mild to moderate necrohemorrhagic bronchioalveolar or minimal subacute bronchioalveolar inflammation” value [3]?
**A.** The value was 6/12.

**Q.** And the “Mild to severe hematopoietic bone marrow hypocellularity” value [3]?
**A.** Its value is 6/12.

**Q.** And the Mortality [3]?
**A.** The Mortality was 7/12.

**Q.** And the Neutropenia nadir [3]?
**A.** Its Neutropenia nadir is 9e+07 L⁻¹.

**Q.** And the Severe neutropenia duration [3]?
**A.** Its Severe neutropenia duration is 5.4.
